Literature values, collected in US9707273B2, “Peptides for use in the topical treatment of retinal neurodegenerative diseases, in particular in early stages of diabetic retinopathy and other retinal diseases in which neurodegeneration plays an essential role” (FUNDACIÓ HOSPITAL UNIVERSITARI VALL D'HEBRON—INSTITUT DE …, priority 2013, dated 2017).

Conditions: administered in the form of eye drops; Aiello et al. 2008

Cc1cc(-c2cc(O)ccc2Cl)cc2nnc(Nc3ccc(OCCN4CCCC4)cc3)nc12 [TG100572, 4-chloro-3-(5-methyl-3-{[4-(2-pyrrolidin-I-ylethoxy)phenyl]amino}-1,2,4-benzotriazin-7-yl)phenol]
reaching the target in the retina after eye drops: able to reach the target in the retina
